According to patent US9097706B2, “Insect-based ex vivo model for testing blood-brain barrier penetration and method for exposing insect brain to chemical compounds” (ENTOMOPHARM APS, priority 2009, dated 2015):
Like-named read-outs stand apart in the source and are kept apart here. Blank lines part the entries; values can stand above or below the molecule they belong to.

How the values were obtained:
[1] = tested on: grasshopper BBB (locusta migratoria brain in its cuticle shell)
Experimental: 1. […] The insects may be obtained from local suppliers or bred in house. The grasshoppers were reared under crowded conditions at 28° C. and a 12:12 dark:light photocycle and fed fresh grass and bran. Before experiments the grasshoppers were fed ecologically cultivated wheat for two weeks. Animals used are adult males (in some experiments females) between two to four weeks after adult emergence. A cut is made through the frontal part of the locust head comprising the most frontal parts including the antennae, the compound eyes, the brain and all neural connections between the brain and the antennae and the eyes. This preparation in its cuticle shell is placed in a well of a microtitre plate containing the test solution. After various times of exposure the preparation is washed in saline and the brain is dissected under microscope with fine forceps. The neural lamella surrounding the brain is removed in saline and the brain is then […] in saline, centrifuged and the supernatant frozen until analyses. Drug concentration is analysed by HPLC, LC/MSMS or other methods.
(§1) A cut was made through the frontal part of the head of adult female locusta migratoria. Each brain in its cuticle shell was placed in a 0.12 mg/ml mianserin solution for 5 minutes. The brain was prepared in saline and removed from the cuticle shell and three brains were placed in each test tube containing 100 ul distilled H2O. 200 ul ACN was added to each tube and the tubes were placed in a sonicator and the brains were disintegrated by approximately 5 seconds of sonication. The samples containing the disintegrated brains were centrifuged for 5 minutes (10000 g at 4° C.).
as §1, with “shell. The brains were washed in Saline. After wash” for “shell and”, “sonication.” for “sonication. The samples containing the disintegrated brains were centrifuged for 5 minutes (10000 g at 4° C.).”
A cut was made through the frontal part of the head of adult female locusta migratoria. Each brain in its cuticle shell was placed in a 0.12 mg/ml mianserin solution for 5 minutes. The brain was prepared in saline and removed from the cuticle shell. To stain the neural lamella Evans Blue was added and the neural lamella was removed. Three brains were placed in each test tube containing 100 ul distilled H2O. 200 ul ACN was added to each tube and the tubes were placed in a sonicator and the brains were disintegrated by approximately 5 seconds of sonication.
A cut was made through the frontal part of the head of the adult locusta migratoria. Each brain in its cuticle shell was placed in a 0.9 mg/ml mianserin solution for 5 minutes. The brain was prepared in saline and removed from the cuticle shell. Three brains were placed in a test tube containing 100 ul PBS. 200 ul ACN was added to each tube. The tubes were placed in a sonicator and the brains were disintegrated by approximately 5 seconds of sonication.
A cut was made through the frontal part of the head of the adult locusta migratoria. Each brain was placed for 5 minutes in a microtiter well with an approximately 0.95 mg/ml solution of mianserin. To stain the neural lamella Evans Blue was added and the neural lamella was removed. Two brains are placed in each test tube and 100 ul distilled H2O and 200 ul ACN is added. The tubes were placed in a sonicator and the brains were disintegrated by approximately 5 seconds of sonication.
A cut was made through the frontal part of the head of the adult locusta migratoria. […] To stain the neural lamella Evans Blue was added and the neural lamella was removed.

Blattodea BBB = settings: for average concentration in brain supernatant measured by LCMS: Blattodea
Experimental: A cut was made through the frontal part of the head of the Blattodea. Each brain was placed for 5 minutes in a microtiter well with an approximately 1.0 mg/ml solution of trazodone. To stain the neural lamella Evans Blue was added and the neural lamella was removed. Two brains are placed in each test tube and 50 ul distilled H2O and 100 ul ACN is added. The tubes were placed in a sonicator and the brains were disintegrated by approximately 5 seconds of sonication.

locust brain barrier = assay: Visual inspection of Evans Blue permeation through the locust brain barrier; format: in vitro ADME, Locusta migratoria; settings: 5 minutes in Evans Blue; neural lamella removed
Experimental: A cut was made through the frontal part of the head of the adult locusta migratoria. Each brain was placed for 5 minutes in a microtiter well containing a mixture of Evans Blue. The neural lamella was removed from the brain.

[2] = Locusta migratoria, 5 min, 0.9 mg/ml

SMILES: Cn1c(=O)c2c(ncn2C)n(C)c1=O [caffeine]
average concentration in brain supernatant measured by LCMS ([1]; approximately 0.78 mg/ml solution, 5 minutes, neural lamella removed, two brains per tube): 1533 ng/mL
permeation of the grasshopper BBB (in words) ([1]; conclusion from the examples): permeate the grasshopper BBB to a much larger extent than peripheral acting drugs
average concentration in brain supernatant measured by LCMS (Blattodea BBB; approximately 0.1 mg/ml solution, 5 minutes, neural lamella removed, two brains per tube): 152 ng/mL
average concentration in brain supernatant measured by LCMS (Blattodea BBB; approximately 1.0 mg/ml solution, 5 minutes, neural lamella removed, two brains per tube): 1028 ng/mL
permeation of the Blattodea BBB (in words) (Blattodea BBB; conclusion from Examples AB-AG): permeate the Blattodea BBB to a much larger extent than atenolol

average concentration in brain supernatant measured by LCMS [1, 2]: 1317 ng/mL
average concentration in brain supernatant measured by LCMS (Blattodea BBB; 5 min, 0.1 mg/ml): 127 ng/mL
average concentration in brain supernatant measured by LCMS (Blattodea BBB; 5 min, 1 mg/ml): 768 ng/mL
SMILES: O=c1n(CCCN2CCN(c3cccc(Cl)c3)CC2)nc2ccccn12 [trazodone]
permeation of the grasshopper BBB (in words) [1]: permeate the grasshopper BBB to a much larger extent than peripheral acting drugs
permeation of the Blattodea BBB (in words) (Blattodea BBB): permeate the Blattodea BBB to a much larger extent than atenolol

[with lamella]/[without lamella] ratio ([1]; Locusta migratoria, 5 min, 0.1 mg/ml): 1.7
[with lamella]/[without lamella] ratio [1, 2]: 2.3
average concentration in brain supernatant measured by LCMS ([1]; Locusta migratoria, 5 min, 0.95 mg/ml): 1439 ng/mL
SMILES: CN1CCN2c3ccccc3Cc3ccccc3C2C1 (stereo not shown) [mianserin]

average concentration in brain supernatant measured by LCMS ([1]; Locusta migratoria, 5 min, 0.72 mg/ml): 674 ng/mL
SMILES: CC(C)NCC(O)COc1cccc2ccccc12 (stereo not shown) [propranolol]
permeation of the grasshopper BBB (in words) [1]: permeate the grasshopper BBB to a much larger extent than peripheral acting drugs

permeation through the locust brain barrier (visual signs in brain) (locust brain barrier): no significant permeation
SMILES: Cc1cc(-c2ccc(/N=N/c3ccc4c(S(=O)(=O)O)cc(S(=O)(=O)O)c(N)c4c3O)c(C)c2)ccc1/N=N/c1ccc2c(S(=O)(=O)O)cc(S(=O)(=O)O)c(N)c2c1O [Evans Blue]
